In patent publication US20120294808A1, “Fluorescent Analogs of Neurotransmitters, Compositions Containing the Same and Methods of Using the Same” (UNIVERSITY OF MIAMI, priority 2009, published 2012):
Several values for one entry are separate records, joined by “and”; a condition that tells them apart may be missing. Identical values can stand only once. Entries after “also recorded” stand apart in the source; their conditions may differ. Blank lines part the entries; values can stand above or below the compound they belong to.

What was measured:
[1] = test system: Neurons and astroglia isolated from E14 chick brainstems; experiment: Live confocal imaging of cultured cells exposed to probe (405 nm excitation); format: cell-based
Method: In other words, whether the probe localized to the cell membrane, implying binding to transporters or receptors, or whether the probe was internalized, implying active transport into the cytosol. Neurons and astroglia isolated from E14 chick brainstems were grown on poly-L-lysine and laminin treated coverslips affixed to 35 mm culture dishes enabling live imaging of the cells in culture media. […] Cells were exposed to the probe solution for one minute, the media was then changed and additional images were captured. […] During the course of the imaging experiments, some photobleaching was observed.

[2] = test system: Mixed cell cultures of neurons and astroglia isolated from the brain stems of E14 chick embryos; experiment: Microwell plate reader cellular uptake assay, with and without clomipramine (SRI) pretreatment; format: cell-based; conditions: for effect of Clomipramine pretreatment on uptake: pre-treatment with Clomipramine, a serotonin reuptake inhibitor; for emission response (cellular uptake): λex=355 nm, λem=444 nm, versus controls A and B
Description: Mixed cell cultures of neurons and astroglia isolated from the brain stems of E14 chick embryos were exposed to solutions of 1-4. Serotonergic cells are clustered in the raphe nucleus (RN) located along the midline of the brain stem; they project into other regions of the brain including the hypothalamus, the olfactory bulb, cortex and cerebellum. […] The inherent fluorescence of the carbostyril core enabled direct detection of their cellular uptake utilizing a microwell plate reader (λex=355 nm, λem=444 nm).
It was believed that several modes of interaction are possible between the fluorescent probes and the cultured cells including specific interactions such as active transport via neurotransmitter transporters, or binding to neurotransmitter receptors, as well as non-specific interactions such as insertion into the cell membrane.

[3] = Optical properties (absorption and emission spectra) of carbostyril probes 1-4; format: physicochemical; conditions: for small additional emission peak: acidic solutions, protonated form
Description: The optical properties of 1-4 were investigated in order to determine their suitability as fluorescent probes. Absorption spectra were obtained in neutral, acidic and basic solutions. […] Addition of acetic acid effected a hypsochromic shift (λmax=335 nm); the addition of triethylamine results in pronounced bathchromic (λmax=370 nm) and hyperchromic shifts. The linear combination of the absorption spectra with excess acid and excess base nearly perfectly overlaps with the spectrum obtained at pH 7.2 (FIG. 1). Therefore, it was determined that at near neutral pH (between approximately 6.5-7.5pH), both protonated and unprotonated species exist at roughly equal concentrations.
Thus, it was determined that in neutral and basic solutions, 1-4 emit from a deprotonated excited state species. Emission in acidic solutions is dominated by the deprotonated species as well. In the case of 3 and 4 a small peak at 380 nm was observed, which is likely due to photoemission from the protonated form of these molecules. While 5HT itself is fluorescent, single photon excitation of 5HT requires specialized optics and a UV excitation source (λmax,abs=277 nm). Furthermore, the autofluorescence of biological samples is also quite high in the UV region. The longer wavelength absorption of 1-4 allows selective photoexcitation of these fluorophores in the presence of aromatic amino acid residues and nucleobases.

[4] = Solubility of probes 1-4 in methanol and PBS; format: physicochemical; conditions: phosphate-buffered saline (PBS), aqueous buffer; read-out: concentration at which soluble in PBS
Description: The synthesis of analogs 2-4 followed a similar route: reaction of 5 with chloroethylamine followed by deprotection of the 6-hydroxy group produced 2; 3 and 4 resulted from reaction of 5 with bromoethanol and bromopropylbenzene respectively. In all cases the N-linked isomer was isolated.

[5] = test system: dissociated e19 chick brain cells; experiment: Example 4 uptake in brain cells (microwell plate assay and/or live cell confocal imaging, 405 nm laser); format: cell-based; conditions: 10 μM to 100 μM; absence of monoamine reuptake inhibitors
Method: Stock solutions of the compounds shown below (UM001-UM005, 8, 9 & 12A from Example 2) were used to produce compositions with final concentrations ranging from 10 μM to 100 μM. The compositions were then contacted with dissociated e19 chick brain cells, irradiated with a 405 nm laser, and imaged using confocal microscopy.

[6] = Optical spectroscopy (UV-vis and fluorescence) of the stilbazolium emitter library; format: physicochemical
Method: UV-vis spectroscopy was conducted to evaluate the absorption and emission spectra for each of the thirty-two emitters.

[7] = test system: dissociated e19 chick brain cells; experiment: 96-microwell plate uptake screen, with and without indatraline pretreatment; format: cell-based; conditions: pretreated with indatraline, a monoamine reuptake inhibitor
Method: The native fluorescence of the emitters enables direct detection of their uptake in dissociated e19 chick brain cells in a convenient 96-microwell plate format. This method enables screening for activity against multiple cell types and transporters including MATs and OCTs without the use of radioactive compounds. Solutions of 11A-18D were added to cell culture media to produce an emitter concentration of 100 μM. The incubation time used was 10 min. The fluorphore solution was removed, fresh media added and the plate immediately analyzed by microwell plate reader. Given the broad range of absorption and emission wavelengths, excitation varied from 355 nm to 500 nm with emission collected at +100 nm to +150 nm.
From this initial assay, it was possible to determine whether a compound associates with the cultured cells; however, it was not clear whether a particular compound was actively transported into cells or simply interacts with the cell membrane. The monoamine transporter (MAT) reuptake inhibitor, indatraline, was utilized to provide some insight into what mechanisms of cellular uptake are at play. Dissociated brain cells were pretreated with indatraline followed by each of the twelve emitters identified from the results shown in FIG. 5.

hSERT = target: T1, hSERT (Homo sapiens, UniProt P31645); experiment: Time-lapse confocal fluorescence microscopy of transporter-expressing HEK-293 cells (hSERT); format: cell-based; conditions: HEK-293 hSERT, 10 μM to 100 μM, images at 10 sec intervals
T1 construct: expressed in transfected cells
Description: (§1) HEK-293 cells stably expressing hDAT, hNET and hSERT were provided by Prof. R. Blakely (See, e.g., J. W. Schwartz, R. D. Blakely and L. J. DeFelice, J. Biol. Chem., 2003, 278, 9768.) and cultured on 35 mm dishes with a coverslip imaging window for confocal microscopy. […] Laser intensity and gain were not altered for subsequent images captured at 10 sec intervals. Representative images are shown in FIG. 7 together with intensity profiles captured from cell bodies.

[8] = test system: live brainstem and cerebellum sections from e19 chicks; experiment: Confocal imaging of live brain explant sections, with and without desipramine; set-up: species or system chick; conditions: for distribution in live brain sections: 405 nm excitation, cerebellum and brainstem
Description: This distribution is consistent with the behavior of these probes towards MAT-expressing HEK293 cells. The wider distribution of 13A may be due to binding to multiple transporter types, wh[…] may be limited to NET or DAT expressing catecholaminergic cells. […] Image overlays from 100 μm sagittal (FIG. 8A) and transverse (FIG. 8B) sections reveal that both probes are associated with cells of chick mesencephalon and metencephalon. The fluorophores were excited by laser at 405 nm. […] The scale bars for FIG. 8 are as follows: 8A & 8B=100 μm; C & D=10 μm; and E & F=50 μm).

hDAT = target: T2, hDAT (Homo sapiens, UniProt Q01959); experiment: Time-lapse confocal fluorescence microscopy of transporter-expressing HEK-293 cells (hDAT); format: cell-based; conditions: HEK-293 hDAT, 10 μM to 100 μM, images at 10 sec intervals
T2 construct: expressed in transfected cells
Description: as §1

hNET = target: T3, hNET (Homo sapiens, UniProt P23975); experiment: Time-lapse confocal fluorescence microscopy of transporter-expressing HEK-293 cells (hNET); format: cell-based; conditions: HEK-293 hNET, 10 μM to 100 μM, images at 10 sec intervals
T3 construct: expressed in transfected cells
Description: as §1

[9] = test system: monoamine oxidases (MAOs); experiment: Conversion of profluorescent HNETP to HNEP+ in cell culture; format: cell-based
Description: In addition, it has been discovered that reduction of HNEP+ (UM006) results in the formation of HNETP (UM007). This provides a profluorescent option for screening pharmaceutical targets in vivo, which allows for the assessment of bioavailability of compounds in model organisms. In particular, the long wavelength absorption and emission of HNEP+ are not present in HNETP due to the loss of conjugation and the cationic pyridinium functionality. […] This reflects two distinct processes: accumulation of HNETP in the cells and the metabolism of HNETP to HNEP+ by MAOs. Inhibitors of MAO are important for several diseases including Parkinsons Disease as well as hypertensive disorders.

T1 sequence (P31645 whole entry): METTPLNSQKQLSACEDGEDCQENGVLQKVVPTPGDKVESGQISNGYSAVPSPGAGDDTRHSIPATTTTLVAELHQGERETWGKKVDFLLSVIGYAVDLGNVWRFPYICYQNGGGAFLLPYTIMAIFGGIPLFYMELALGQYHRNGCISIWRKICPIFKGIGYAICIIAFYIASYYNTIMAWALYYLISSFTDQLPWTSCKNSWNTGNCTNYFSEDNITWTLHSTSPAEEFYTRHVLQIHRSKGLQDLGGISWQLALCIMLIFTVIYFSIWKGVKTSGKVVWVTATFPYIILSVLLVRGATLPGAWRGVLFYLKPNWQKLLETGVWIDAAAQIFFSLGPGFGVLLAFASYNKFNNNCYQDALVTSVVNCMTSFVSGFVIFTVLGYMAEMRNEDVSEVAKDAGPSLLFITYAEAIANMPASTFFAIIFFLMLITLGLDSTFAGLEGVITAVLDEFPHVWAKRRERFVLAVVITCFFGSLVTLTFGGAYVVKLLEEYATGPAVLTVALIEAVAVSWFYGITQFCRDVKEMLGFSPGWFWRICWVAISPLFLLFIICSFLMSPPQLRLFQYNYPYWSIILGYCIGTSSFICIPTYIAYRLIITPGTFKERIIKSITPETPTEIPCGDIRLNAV
T3 sequence (P23975 whole entry): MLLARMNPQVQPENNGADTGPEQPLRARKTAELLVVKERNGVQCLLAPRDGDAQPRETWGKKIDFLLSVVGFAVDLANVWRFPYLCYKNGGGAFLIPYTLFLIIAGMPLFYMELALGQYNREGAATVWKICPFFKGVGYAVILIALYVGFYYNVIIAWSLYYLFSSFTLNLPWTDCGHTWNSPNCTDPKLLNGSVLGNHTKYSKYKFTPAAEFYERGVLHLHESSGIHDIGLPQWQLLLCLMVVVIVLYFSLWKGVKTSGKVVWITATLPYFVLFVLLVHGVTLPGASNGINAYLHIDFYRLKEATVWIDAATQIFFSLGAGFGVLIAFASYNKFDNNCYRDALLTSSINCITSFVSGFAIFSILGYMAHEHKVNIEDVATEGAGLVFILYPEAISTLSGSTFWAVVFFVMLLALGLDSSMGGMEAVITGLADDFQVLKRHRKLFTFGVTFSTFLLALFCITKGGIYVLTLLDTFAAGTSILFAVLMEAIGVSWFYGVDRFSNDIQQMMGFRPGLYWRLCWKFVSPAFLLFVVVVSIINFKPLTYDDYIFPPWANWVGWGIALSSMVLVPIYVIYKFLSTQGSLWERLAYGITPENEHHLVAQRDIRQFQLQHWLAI
T2 sequence (Q01959 whole entry): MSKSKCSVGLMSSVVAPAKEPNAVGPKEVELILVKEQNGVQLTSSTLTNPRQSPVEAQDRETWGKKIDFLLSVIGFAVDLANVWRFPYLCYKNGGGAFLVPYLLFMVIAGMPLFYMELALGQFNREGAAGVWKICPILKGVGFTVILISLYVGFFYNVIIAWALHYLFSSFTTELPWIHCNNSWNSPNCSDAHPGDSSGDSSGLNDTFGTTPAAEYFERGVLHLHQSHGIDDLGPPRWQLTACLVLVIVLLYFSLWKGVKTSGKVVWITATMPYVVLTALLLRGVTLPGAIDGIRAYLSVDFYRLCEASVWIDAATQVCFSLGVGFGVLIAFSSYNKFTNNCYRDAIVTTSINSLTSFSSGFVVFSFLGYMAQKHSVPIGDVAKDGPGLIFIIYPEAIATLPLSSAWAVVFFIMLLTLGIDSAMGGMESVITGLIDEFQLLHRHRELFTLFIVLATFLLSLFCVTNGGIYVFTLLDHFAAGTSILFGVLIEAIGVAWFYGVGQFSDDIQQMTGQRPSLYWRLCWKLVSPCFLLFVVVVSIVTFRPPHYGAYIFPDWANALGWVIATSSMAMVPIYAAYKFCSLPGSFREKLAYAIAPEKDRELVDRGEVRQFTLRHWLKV

Structure (SMILES): NCCn1c(=O)cc(C(F)(F)F)c2ccc(O)cc21 [Compound 1]
cell binding / illumination ([1]; one minute exposure, 405 nm excitation): bound to and illuminated most healthy cells
photostability during imaging ([1]; without antifade reagents): sufficiently stable to capture multiple images over 10 mins
subcellular localization of probe ([1]; z-stacks, one minute exposure): localized internally after only one minute of exposure; also recorded: localized to the interior of both astroglia and neurons
effect of Clomipramine pretreatment on uptake [2]: significantly reduced
emission response (cellular uptake) [2]: high emission response

Structure (SMILES): CN(C)CCn1c(=O)cc(C(F)(F)F)c2ccc(O)cc21 [Compound 2]
emission response (cellular uptake) [2]: did not differ significantly from the controls

small additional emission peak [3]: 380 nm
Structure (SMILES): O=c1cc(C(F)(F)F)c2ccc(O)cc2n1CCO [Compound 3]
emission response (cellular uptake) [2]: did not differ significantly from the controls

solubility [4]: < 50 µM
small additional emission peak [3]: 380 nm
Structure (SMILES): O=c1cc(C(F)(F)F)c2ccc(O)cc2n1CCCc1ccccc1 [Compound 4]
effect of Clomipramine pretreatment on uptake [2]: significantly reduced
emission response (cellular uptake) [2]: to a lesser extent

λmax,abs ([3]; 5HT comparison): 277 nm
Structure (SMILES): NCCc1c[nH]c2ccc(O)cc12 [Compound 5HT, 5-hydroxytryptamine, reference compound]

Structure (SMILES): CN(C)CCn1c(=O)cc(C(F)(F)F)c2ccc(O)cc21 [Compound 8]
uptake in dissociated chick brain cells [5]: little or no uptake

Structure (SMILES): CN(C)CCN1C(=O)c2cccc3c(N)ccc(c23)C1=O [Compound 9]
uptake in dissociated chick brain cells [5]: little or no uptake

absorption maxima ([6]; 10 μM solutions): 358 nm
emission maxima ([6]; 10 μM solutions): 475 nm and 490 nm
Structure (SMILES): COc1ccc(/C=C/c2cc[n+](C)cc2)cc1 [Compound 12A]
uptake in dissociated chick brain cells [5]: accumulated
emission response after indatraline pretreatment [7]: maintained high responses even after indatraline pretreatment

Structure (SMILES): C[n+]1ccc(/C=C/c2ccc3ccccc3c2)cc1.[I-] [Compound 13A, (E)-1-Methyl-4-[2-(2-naphthalenyl)ethenyl]-pyridinium iodide]
overall brightness (ε·Φem) ([6]; versus acridine orange, Hoescht 33258 and DAPI): compares favorably
accumulation / transport in cells expressing SERT (hSERT): did not accumulate; also recorded: does not appear to be transported
emission response after indatraline pretreatment [7]: affected by indatraline pretreatment
distribution in live brain sections [8]: widely distributed in both the cerebellum and pons
accumulation / transport in cells expressing DAT (hDAT): did not accumulate; also recorded: does not appear to be transported
accumulation / transport in cells expressing NET (hNET): did not accumulate; also recorded: does not appear to be transported

Structure (SMILES): C[n+]1ccc(/C=C/c2ccc3cc(O)ccc3c2)cc1 [Compound 14A, (E)-4-[2-(6-hydroxy-2-naphthalenyl)ethenyl]-1-methyl-pyridinium iodide]
accumulation / transport in cells expressing SERT (hSERT): does not differ substantially from the control untransfected HEK cells
distribution in live brain sections [8]: appears in distinct cell groupings along the cerebellar gyri and around the midline of the brainstem
effect of desipramine pretreatment on accumulation ([8]; pretreatment with desipramine, a norepinephrine reuptake inhibitor): limited the accumulation
accumulation / transport in cells expressing NET (hNET): preferentially accumulates in cells expressing NET; also recorded: rapidly accumulated

Structure (SMILES): CN1CC=C(/C=C/c2ccc3cc(O)ccc3c2)CC1 [HNETP]
metabolic conversion by MAOs [9]: convert HNETP to HNEP+ in cell culture
